Assay results taken from patent publication US20170107203A1, “HETEROCYCLIC INHIBITORS OF THE SODIUM CHANNEL” (EPIRUS BIOPHARMACEUTICALS, INC., priority 2014, published 2017).

Target: T1, human Nav1.7 (Homo sapiens, UniProt Q15858)
T1 construct: expressed in transfected cells
Assay: Assessment of Nav1.7 activity on PatchXpress (voltage dependence / slow inactivation parameters)
Assay type: cell-based
Details: compound at 10 μM, relative to 0.2% DMSO vehicle control; for hNav1.7: Reduction in current at 20 mV (normalized data) Delta Ratio: before/after 30 sec conditioning pulse at 20 mV; for hNav1.7: Shift in voltage dependence of inactivation (mV) Delta Vhalf: PatchXpress
Protocol: The generation of a HEK 293F cell line stably expressing human Nav1.7/Navp1 was achieved by co-transfecting human SCN9A and human SCN1B cDNAs, subcloned into plasmid vectors, utilizing standard transfection techniques. Clones were selected using appropriate selection agents (0.3 mg/mL Zeocin and 0.8 mg/mL Geneticin) and maintained in Dulbecco's Modified Eagle medium, 10% fetal bovine serum, 1% non-essential amino acids to ˜80% confluence at 37° C. in a humidified incubator with 95% atmosphere and 5% CO2.
On the day of each experiment, cells that were grown to 80% confluence in a T75 flask were harvested for use on PatchXpress (Molecular Devices, CA, USA). Following a recovery period at 37° C. in a humidified incubator with 95% atmosphere and 5% CO2 in Dulbecco's Modified Eagle Medium, the media was replaced with an external recording solution containing (in mM): 90 TEACI, 50 NaCl, 1.8 CaCl2, 1 MgCl2, 10 HEPES, 10 glucose, adjusted to pH 7.4 with TEAOH and 300 mOsm with sucrose. The internal recording solution contained (in mM): 129 CsF, 2 MgCl2, 11 EGTA, 10 HEPES, 6 NaCl, 3 Na2ATP adjusted to pH 7.2 with CsOH and 280 mOsm with sucrose. The automated liquid handling facility of PatchXpress dispensed cells and added compound. Modulation of Nav1.7 channels by compounds was assessed by promoting the channels into the inactivated state using a conditioning voltage pulse of variable amplitude, followed by a brief hyperpolarizing pulse with a subsequent depolarized voltage step to measure the current amplitude in the presence and absence of compound. Compounds were assayed at 10 μM. Based upon this Patch express protocol, four electrophysiological parameters were measured relative to a 0.2% DMSO vehicle control (Table 2).

T1 sequence (Q15858 whole entry): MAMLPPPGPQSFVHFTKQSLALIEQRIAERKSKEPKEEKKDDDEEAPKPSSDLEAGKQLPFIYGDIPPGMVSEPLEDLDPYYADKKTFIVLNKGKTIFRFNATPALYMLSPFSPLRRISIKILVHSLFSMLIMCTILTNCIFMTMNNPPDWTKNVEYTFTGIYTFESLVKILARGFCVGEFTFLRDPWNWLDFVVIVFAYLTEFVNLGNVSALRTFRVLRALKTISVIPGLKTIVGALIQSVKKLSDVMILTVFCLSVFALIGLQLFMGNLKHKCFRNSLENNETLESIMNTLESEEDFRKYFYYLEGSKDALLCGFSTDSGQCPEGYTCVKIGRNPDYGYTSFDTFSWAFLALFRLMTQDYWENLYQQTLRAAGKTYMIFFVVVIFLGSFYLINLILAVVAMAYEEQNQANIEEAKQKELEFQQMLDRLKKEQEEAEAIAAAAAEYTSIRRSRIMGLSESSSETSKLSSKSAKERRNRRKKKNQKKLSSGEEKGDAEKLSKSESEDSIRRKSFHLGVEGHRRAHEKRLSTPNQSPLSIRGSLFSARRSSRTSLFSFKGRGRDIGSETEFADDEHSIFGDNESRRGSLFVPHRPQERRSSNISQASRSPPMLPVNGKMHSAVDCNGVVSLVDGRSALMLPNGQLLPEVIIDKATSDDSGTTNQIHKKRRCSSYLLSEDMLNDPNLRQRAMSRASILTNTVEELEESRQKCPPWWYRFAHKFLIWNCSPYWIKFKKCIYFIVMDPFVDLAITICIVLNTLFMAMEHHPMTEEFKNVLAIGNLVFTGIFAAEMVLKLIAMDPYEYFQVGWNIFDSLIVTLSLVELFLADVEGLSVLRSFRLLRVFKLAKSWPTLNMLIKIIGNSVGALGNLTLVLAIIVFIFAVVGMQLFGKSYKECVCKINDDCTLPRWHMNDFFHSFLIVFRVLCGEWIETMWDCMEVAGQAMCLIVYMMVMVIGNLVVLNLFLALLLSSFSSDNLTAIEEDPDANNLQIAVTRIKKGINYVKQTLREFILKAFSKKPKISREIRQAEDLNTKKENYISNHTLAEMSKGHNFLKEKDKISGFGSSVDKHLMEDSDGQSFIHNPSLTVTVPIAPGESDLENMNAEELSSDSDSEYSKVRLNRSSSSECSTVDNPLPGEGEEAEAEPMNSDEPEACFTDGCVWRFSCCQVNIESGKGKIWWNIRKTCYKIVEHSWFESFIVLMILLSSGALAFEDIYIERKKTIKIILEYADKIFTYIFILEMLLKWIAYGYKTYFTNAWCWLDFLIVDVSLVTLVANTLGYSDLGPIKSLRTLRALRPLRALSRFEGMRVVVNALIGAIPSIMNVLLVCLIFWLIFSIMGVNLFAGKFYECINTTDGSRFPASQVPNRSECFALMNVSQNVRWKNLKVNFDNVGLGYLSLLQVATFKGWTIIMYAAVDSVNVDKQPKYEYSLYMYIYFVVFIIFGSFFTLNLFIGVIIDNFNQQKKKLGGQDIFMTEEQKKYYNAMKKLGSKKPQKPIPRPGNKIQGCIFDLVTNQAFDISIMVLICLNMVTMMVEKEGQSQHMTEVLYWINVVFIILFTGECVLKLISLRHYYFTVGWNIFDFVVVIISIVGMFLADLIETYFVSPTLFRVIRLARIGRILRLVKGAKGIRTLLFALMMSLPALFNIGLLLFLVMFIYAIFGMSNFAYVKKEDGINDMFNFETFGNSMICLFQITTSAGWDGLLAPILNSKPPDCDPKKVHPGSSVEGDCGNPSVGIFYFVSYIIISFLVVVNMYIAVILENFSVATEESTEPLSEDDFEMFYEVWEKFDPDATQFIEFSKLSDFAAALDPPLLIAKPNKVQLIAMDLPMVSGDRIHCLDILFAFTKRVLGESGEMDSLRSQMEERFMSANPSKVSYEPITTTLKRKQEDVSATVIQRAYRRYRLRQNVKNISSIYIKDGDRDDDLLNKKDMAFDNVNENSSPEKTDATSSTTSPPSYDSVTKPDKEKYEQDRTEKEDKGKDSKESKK
T1 sequence (Q07699 19-218 partner): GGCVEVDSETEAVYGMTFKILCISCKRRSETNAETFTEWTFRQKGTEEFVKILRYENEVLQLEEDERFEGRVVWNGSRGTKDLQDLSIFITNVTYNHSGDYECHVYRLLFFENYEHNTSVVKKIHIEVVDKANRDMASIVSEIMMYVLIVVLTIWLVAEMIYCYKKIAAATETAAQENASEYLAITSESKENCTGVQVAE

Compound	hNav1.7: Reduction in current at 20 mV (normalized data) Delta Ratio	hNav1.7: Voltage dependence of activation (mV) VDEP [mV]	hNav1.7: Voltage dependence of fast inactivation (mV) VDEP [mV]	hNav1.7: Shift in voltage dependence of inactivation (mV) Delta Vhalf [mV]
N[C@H](c1ccccc1)c1nc2cc(C(F)(F)F)cc(C(F)(F)F)c2[nH]1 [Compound 57, (R)-(4,6-bis(trifluoromethyl)-1H-benzo[d]imidazol-2-yl)(phenyl)methanamine]	−0.21	−4.7	−4.8	−10.4
NC[C@@H]1Nc2c(cc(C(F)(F)F)cc2C(F)(F)F)NC1=O [Compound 40, (S)-3-(aminomethyl)-5,7-bis(trifluoromethyl)-3,4-dihydroquinoxalin-2(1H)-one]	−0.02	−6.60	−2.60	−3.90
CC(C)C[C@H](N)CC(=O)NCCOc1cc(F)cc(C(F)(F)F)c1 [Compound 18, (S)-3-amino-N-(2-(3-fluoro-5-(trifluoromethyl)phenoxy)ethyl)-5-methylhexanamide]	−0.09	−2.60	−3.90	−11.90
O=C1CNCCN1Cc1nc2cc(Br)ccc2[nH]1 [Compound 63, 1-((6-bromo-1H-benzo[d]imidazol-2-yl)methyl)piperazin-2-one]	−0.17	−8.1	−6.4	−9.7
CC(=O)N1CCC(NC(=O)Nc2ccc(OC(F)(F)F)cc2)CC1 [Compound 50, 1-(1-acetylpiperidin-4-yl)-3-(4-(trifluoromethoxy)phenyl)urea]	0.02	−8.30	−2.10	−0.30
CC[C@@H](C)[C@@H](N)C(=O)NCCOc1cc(F)cc(C(F)(F)F)c1 [Compound 19, (2R,3R)-2-amino-N-(2-(3-fluoro-5-(trifluoromethyl)phenoxy)ethyl)-3-methylpentanamide]	−0.08	−8.00	−3.50	−10.00
O[C@@H]1CN[C@H](c2nc3cc(C(F)(F)F)cc(C(F)(F)F)c3[nH]2)C1 [Compound 85, (3S,5S)-5-(5,7-bis(trifluoromethyl)-1H-benzo[d]imidazol-2-yl)pyrrolidin-3-ol]	0.03	−3.4	−3.2	0.3
CC(C)CC(N)C(=O)N[C@H](COc1cc(C(F)(F)F)cc(C(F)(F)F)c1)c1ccccc1 (stereo partly drawn) [Compound 4, 2-amino-N-((S)-2-(3,5-bis(trifluoromethyl)phenoxy)-1-phenylethyl)-4-methylpentanamide]	−0.27	−5.80	−11.50	−31.10
O=C(CN1CCNCC1=O)NCC(F)(F)F [Compound 47, 2-(2-oxopiperazin-1-yl)-N-(2,2,2-trifluoroethyl)acetamide]	−0.02	−8.90	−4.40	−2.50
N[C@@H](Cc1ccccc1)c1nc2cc(C(F)(F)F)cc(C(F)(F)F)c2[nH]1 [Compound 51, (S)-1-(4,6-bis(trifluoromethyl)-1H-benzo[d]imidazol-2-yl)-2-phenylethan-1-amine]	−0.35	−9.5	−11.5	−20.8
Cc1cccc(C)c1OCC(C)NC(=O)CN (stereo not drawn) [Compound 17, 2-amino-N-(1-(2,6-dimethylphenoxy)propan-2-yl)acetamide]	−0.10	−5.80	−5.90	−12.40
N[C@H](Cc1cccc(F)c1)c1nc2cc(C(F)(F)F)cc(C(F)(F)F)c2[nH]1 [Compound 55, (R)-1-(4,6-bis(trifluoromethyl)-1H-benzo[d]imidazol-2-yl)-2-(3-fluorophenyl)ethan-1-amine]	−0.26	−8.6	−6.2	−15.1
O=C1CNCCN1CCCc1nc2cc(F)cc(F)c2[nH]1 [Compound 68, 1-(3-(4,6-difluoro-1H-benzo[d]imidazol-2-yl)propyl)piperazin-2-one]	−0.1	−11.6	−4.9	−11.4
COC[C@@H](N)C(=O)NCC(=O)NCc1cc(C(F)(F)F)cc(C(F)(F)F)c1 [Compound 80, (R)-2-amino-N-(2-((3,5-bis(trifluoromethyl)benzyl)amino)-2-oxoethyl)-3-methoxypropanamide]	−0.03	−9.3	−3.8	−7.2
O=C(NCC12CC3CC(CC(C3)C1)C2)[C@H]1CCCN1 [Compound 44, (R)-N-(adamantan-1-ylmethyl)pyrrolidine-2-carboxamide]	−0.11	−13.20	−6.00	−5.40
O=C(NCCOc1cc(C(F)(F)F)cc(C(F)(F)F)c1)C1CCCN1 (stereo not drawn) [Compound 14, N-(2-(3,5-bis(trifluoromethyl)phenoxy)ethyl) pyrrolidine-2-carboxamide]	−0.17	−4.00	−1.10	−25.30
NC1CCN(C(=O)Cc2nc3cc(C(F)(F)F)cc(C(F)(F)F)c3[nH]2)CC1 [Compound 90, 1-(4-aminopiperidin-1-yl)-2-(4,6-bis(trifluoromethyl)-1H-benzo[d]imidazol-2-yl)ethan-1-one]	0.01	−2.9	0.1	2.3
N[C@H](C(=O)NCCOc1cc(C(F)(F)F)cc(C(F)(F)F)c1)c1ccccc1 [Compound 9, (S)-2-amino-N-(2-(3,5-bis(trifluoromethyl)phenoxy)ethyl)-2-phenylacetamide]	−0.21	−8.10	−7.90	−18.30
